In ChEMBL document CHEMBL2074089, “Methotrexate is excreted into the bile by canalicular multispecific organic anion transporter in rats” (Cancer Res, 1997):

Legend:
Format in all cases: functional, cell membranes, Sprague-Dawley, Bile canalicular membrane vesicle
[1] = biological target: T1, ATP-binding cassette sub-family C member 2 (Rattus norvegicus, UniProt Q63120); experiment: TP_TRANSPORTER: inhibition of L-MTX uptake in bile canalicular membrane vesicles from SD rat
[2] = biological target: T1, ATP-binding cassette sub-family C member 2; experiment: TP_TRANSPORTER: inhibition of DNP-SG uptake in bile canalicular membrane vesicles from SD rat
[3] = substrate: CN(Cc1cnc2nc(N)nc(N)c2n1)c1ccc(C(=O)N[C@@H](CCC(=O)O)C(=O)O)cc1; experiment: (§1) TP_TRANSPORTER: uptake in bile canalicular membrane vesicles from SD rat
[4] = substrate: N[C@@H](CCC(=O)N[C@H](CSc1ccc([N+](=O)[O-])cc1[N+](=O)[O-])C(=O)NCC(=O)O)C(=O)O; experiment: as §1

Molecule	Ki [1] [µM]	Ki [2] [µM]	Km [3] [µM]	Km [4] [µM]
CN(Cc1cnc2nc(N)nc(N)c2n1)c1ccc(C(=O)N[C@H](CCC(=O)O)C(=O)O)cc1	92.8			
CN(Cc1cnc2nc(N)nc(N)c2n1)c1ccc(C(=O)N[C@@H](CCC(=O)O)C(=O)O)cc1 [METHOTREXATE]	326	236		
ATP-binding cassette sub-family C member 2 (Rattus norvegicus) (protein) MDKFCNSTFWDLSLLESPEADLPLCFEQTVLVWIPLGFLWLLAPWQLYSVYRSRTKRSSITKFYLAKQVFVVFLLILAAIDLSLALTEDTGQATVPPVRYTNPILYLCTWLLVLAVQHSRQWCVRKNSWFLSLFWILSVLCGVFQFQTLIRALLKDSKSNMAYSYLFFVSYGFQIVLLILTAFSGPSDSTQTPSVTASFLSSITFSWYDRTVLKGYKHPLTLEDVWDIDEGFKTRSVTSKFEAAMTKDLQKARQAFQRRLQKSQRKPEATLHGLNKKQSQSQDVLVLEEAKKKSEKTTKDYPKSWLIKSLFKTFHVVILKSFILKLIHDLLVFLNPQLLKLLIGFVKSSNSYVWFGYICAILMFAVTLIQSFCLQSYFQHCFVLGMCVRTTVMSSIYKKALTLSNLARKQYTIGETVNLMSVDSQKLMDATNYMQLVWSSVIQITLSIFFLWRELGPSILAGVGVMVLLIPVNGVLATKIRNIQVQNMKNKDKRLKIMNEILSGIKILKYFAWEPSFQEQVQGIRKKELKNLLRFGQLQSLLIFILQITPILVSVVTFSVYVLVDSANVLNAEKAFTSITLFNILRFPLSMLPMVTSSILQASVSVDRLERYLGGDDLDTSAIRRVSNFDKAVKFSEASFTWDPDLEATIQDVNLDIKPGQLVAVVGTVGSGKSSLVSAMLGEMENVHGHITIQGSTAYVPQQSWIQNGTIKDNILFGSEYNEKKYQQVLKACALLPDLEILPGGDMAEIGEKGINLSGGQKQRVSLARAAYQDADIYILDDPLSAVDAHVGKHIFNKVVGPNGLLAGKTRIFVTHGIHFLPQVDEIVVLGKGTILEKGSYRDLLDKKGVFARNWKTFMKHSGPEGEATVNNDSEAEDDDDGLIPTMEEIPEDAASLAMRRENSLRRTLSRSSRSSSRRGKSLKNSLKIKNVNVLKEKEKEVEGQKLIKKEFVETGKVKFSIYLKYLQAVGWWSILFIILFYGLNNVAFIGSNLWLSAWTSDSDNLNGTNNSSSHRDMRIGVFGALGLAQGICLLISTLWSIYACRNASKALHGQLLTNILRAPMRFFDTTPTGRIVNRFSGDISTVDDLLPQTLRSWMMCFFGIAGTLVMICMATPVFAIIIIPLSILYISVQVFYVATSRQLRRLDSVTKSPIYSHFSETVTGLPIIRAFEHQQRFLAWNEKQIDINQKCVFSWITSNRWLAIRLELVGNLVVFCSALLLVIYRKTLTGDVVGFVLSNALNITQTLNWLVRMTSEAETNIVAVERISEYINVENEAPWVTDKRPPADWPRHGEIQFNNYQVRYRPELDLVLKGITCNIKSGEKVGVVGRTGAGKSSLTNCLFRILESAGGQIIIDGIDVASIGLHDLRERLTIIPQDPILFSGSLRMNLDPFNKYSDEEVWRALELAHLRSFVSGLQLGLLSEVTEGGDNLSIGQRQLLCLGRAVLRKSKILVLDEATAAVDLETDSLIQTTIRKEFSQCTVITIAHRLHTIMDSDKIMVLDNGKIVEYGSPEELLSNRGSFYLMAKEAGIENVNHTEL			296	10.7
